Test results from PubChem BioAssay AID1999 (Broad Institute, 2009).
Results filed as inconclusive are left out. Activity calls are given as the source filed them. The rule behind the calls is not given here.

System: H4 cells, PrP 5'UTR luciferase reporter, luminescence
Assay: activators of PrP 5'UTR-driven reporter translation, dose response, luminescence (AID 1999)

In the case of `C#CCOCCOCCOCCNc1nc(N2CCN(C(=O)CCCCCCCCCCNC(=O)[C@H](CCCCN)n3cc(CCCC(=O)O)nn3)CC2)nc(N2CCN(C(=O)CCCCCCCCCCNC(=O)[C@H](CCCN=C(N)N)n3cc(C[C@@H](C)CC)nn3)CC2)n1`, the EC50 is reported as > 12 µM (inactive).
